Measured values from patent US6919306B2, “Method of skin care” (Yaizu Suisankagaku Industry Co. Ltd., priority 1999, dated 2005).
Marks after values point to notes of the source that are not given here.

Experiments:
[1] = system: skin conditions of adult female volunteers; assay: Questionnaire on skin conditions after tablet ingestion; type: in vivo, human; settings: NAG 1.2 g per day oral tablets, 60 days
Experimental: 20 adult female volunteers of age ranging from 25 to 45 years old were classified into two groups i.e. a test group and a control group. They were asked to take tablets prepared similarly as in Example 1 as described below at a rate of […], twice a day (NAG ingestion amount per day: 1.2 g) together with water, provided that the tablets for the control group were prepared by using lactose as a placebo instead of NAG. The test period was 60 days, and after the completion of test, they were questioned about skin conditions and the like by questionnaires. No particular restriction was made with respect to diet, makeup and the like during the test period.

skin surface = assay: Microscopic three-dimensional skin surface analysis (VISIOSCAN); type: in vivo, human; parameters: key to SEsc (Ideal value: Lowest value), Below left eye / SEsc (Ideal value: Lowest value), Left upper arm: SEsc = I/(Nx×Ny)×100; lower = more moist, less scaling; key to SEsm (Ideal value: Lowest value), Left upper arm / SEsm (Ideal value: Lowest value), Below left eye: SEsm = (Co−Cu)×(Fmx−Fmy)×K; lower = smoother skin; SWw (Ideal value: Lowest value), Below left eye / SWw (Ideal value: Lowest value), Left upper arm: scale not given here; settings: for Kurtosis (Ideal value: 0), Below left eye / Kurtosis (Ideal value: 0), Left upper arm / Kurtosis (Ideal value: 0), Poll / SEr (Ideal value: Lowest value), Below left eye / SEr (Ideal value: Lowest value), Left upper arm / SEr (Ideal value: Lowest value), Poll / SEsc (Ideal value: Lowest value), Below left eye / SEsc (Ideal value: Lowest value), Left upper arm / SEsc (Ideal value: Lowest value), Poll / SEsm (Ideal value: Lowest value), Below left eye / SEsm (Ideal value: Lowest value), Left upper arm / SEsm (Ideal value: Lowest value), Poll / SWw (Ideal value: Lowest value), Below left eye / SWw (Ideal value: Lowest value), Left upper arm / SWw (Ideal value: Lowest value), Poll: NAG 1,000 mg/day oral; for SEr (Ideal value: Lowest value), Below left eye / SEr (Ideal value: Lowest value), Left upper arm / SEr (Ideal value: Lowest value), Poll: skin roughness; for SEsc (Ideal value: Lowest value), Below left eye / SEsc (Ideal value: Lowest value), Left upper arm / SEsc (Ideal value: Lowest value), Poll: skin scaliness; for SEsm (Ideal value: Lowest value), Below left eye / SEsm (Ideal value: Lowest value), Left upper arm / SEsm (Ideal value: Lowest value), Poll: skin smoothness; for SWw (Ideal value: Lowest value), Below left eye / SWw (Ideal value: Lowest value), Left upper arm / SWw (Ideal value: Lowest value), Poll: skin wrinkles
Experimental: To 22 females usually having a tendency of xeroderma and rough skin (average age: 25.5±10.7), a double blind long-term ingestion study was carried out in the following manners provided that a […] were given to a control group.
NAG-containing tablets-administered group (NAG group, n=11): Tablets prepared similarly as in Example 1 as described below (NAG amount: 200 mg/tablet), were ingested at a rate of 5 tablets/day (NAG 1,000 mg/day, as a daily dose).
The ingestion period was 8 weeks in each group. The inspection was in principle carried out just before the start of ingestion, 4 weeks after the start of ingestion, and just before the completion of ingestion (8 weeks after the start of ingestion).
This analysis was conducted by using a digital analyzer of the skin surface (VISIONSCAN: manufactured by Courage+Khazaka Electronic Gmbh). In use of this apparatus, the skin surface was irradiated with special ultraviolet ray source, and the image is taken by a high performance CCD camera and digitalized for evaluation. The following factors were sampled as parameters.
This value is calculated from the average of the width and depth of wrinkles by the following formula (i), and one of indices which show the smoothness of skin. The smaller this value is, the smoother the skin surface is. SEsm=(Co−Cu)×(Fmx−Fmy)×K (i) • Fmx: average width of furrows for the row analysis. • Fmy: average width of furrows for the column analysis. • Co: right frontier of the histogram whose calculation is based on a set-up values. • Cu: left frontier of the histogram whose calculation is based on a set-up values. • K: factor
This value is obtained by calculating the ratio of points darker than the set-up points in the whole image and further calculating by the following formula (ii), and one of indices which show the roughness of skin. The higher the value is, the rougher the skin is. SEr=I/(Nx×Ny)×100 (ii) • I: counter whose start value is 0 and which is incremented each time the gray value of the current point is smaller than the threshold issued from the set-up programs. • Nx: amount of point per row. • Ny: amount of point per column.
Epidermolysis parts are counted to be brighter than the set-up values in the image. The SEsc value is obtained by calculating the ratio of these parts relative to the entire part by the following formula (iii), and is one of indices which show the dryness of scale (corneum). The lower the value is, the more moist and the less epidermolysis (scale). SEsc=I/(Nx×Ny)×100 (iii) • I: counter whose start value is 0 and which is incremented each time the gray value of the current point is bigger than the threshold issued from the set-up programs. • Nx: amount of point per row. • Ny: amount of point per column.
The higher the value is, the more the number of wrinkle is and the wider the width of wrinkles is. SEw=Fmx×Fmy/(Fax×Fay)×Fay/Fax×K (iv) • Fax: amount of furrows for the row analysis. • Fmx: average width of furrows for the row analysis. • Fay: amount of furrows for the column analysis. • Fmy: average width of furrows for the column analysis. • K: factor
The closer to 0 the value is, the smoother in curve the hue point is and the closer to ideal skin.

[2] = Solubility of natural-type NAG in water; type: physicochemical; settings: water of 25° C.
Source text: In the present invention, as a carrier for the skin care agent, foods such as confectioneries, powdered soups, dairy products and beverages, may, for example, be mentioned. As such foods, specifically, gum, candies, tabletted confectioneries, chocolate, jelly, cookies, snacks, corn potage soup, consomme soup, milk, pudding, yogurt, ice cream, lactic acid beverages, alcohol beverages, vitamin beverages, mineral beverages, coffee beverages, near water, nutrition drinks, and the like, may be mentioned.

SMILES: CC(=O)N[C@H]1C(O)O[C@H](CO)[C@@H](O)[C@@H]1O (stereo partly drawn) [NAG, N-acetylglucosamine]
- skin-beautification effect ([1]; versus placebo region): recognized
- Fine wrinkles decreased (number of persons) ([1]; test region, placebo 1): 5
- Skin conditions worsened as a whole (number of persons) ([1]; test region, placebo 1): 0
- Feel moistness in skin (number of persons) ([1]; test region, placebo 2): 7
- Feel tension in skin (number of persons) ([1]; test region, placebo 2): 6
- Skin conditions improved as a whole (number of persons) ([1]; test region, placebo 2): 8
- No change (including unidentified) (number of persons) ([1]; test region, placebo 5): 2
- Kurtosis (Ideal value: 0), Below left eye (skin surface; after 4 weeks): 0.34
- Kurtosis (Ideal value: 0), Left upper arm (skin surface; after 4 weeks): 0.40
- Kurtosis (Ideal value: 0), Poll (skin surface; after 4 weeks): 0.39
- Kurtosis (Ideal value: 0), Below left eye (skin surface; after 8 weeks): 0.30
- Kurtosis (Ideal value: 0), Left upper arm (skin surface; after 8 weeks): 0.50
- Kurtosis (Ideal value: 0), Poll (skin surface; after 8 weeks): 0.39
- Kurtosis (Ideal value: 0), Below left eye (skin surface; before ingestion): 0.58
- Kurtosis (Ideal value: 0), Left upper arm (skin surface; before ingestion): 0.97
- Kurtosis (Ideal value: 0), Poll (skin surface; before ingestion): 0.79
- SEsm value and SEsc value at the poll, change (skin surface; NAG group, 1,000 mg/day oral, 8 weeks): significant decrease
- SEr (Ideal value: Lowest value), Below left eye (skin surface; after 4 weeks): 0.26
- SEr (Ideal value: Lowest value), Left upper arm (skin surface; after 4 weeks): 0.22
- SEr (Ideal value: Lowest value), Poll (skin surface; after 4 weeks): 0.32
- SEr (Ideal value: Lowest value), Below left eye (skin surface; after 8 weeks): 0.21
- SEr (Ideal value: Lowest value), Left upper arm (skin surface; after 8 weeks): 0.28
- SEr (Ideal value: Lowest value), Poll (skin surface; after 8 weeks): 0.40
- SEr (Ideal value: Lowest value), Below left eye (skin surface; before ingestion): 0.25
- SEr (Ideal value: Lowest value), Left upper arm (skin surface; before ingestion): 0.30
- SEr (Ideal value: Lowest value), Poll (skin surface; before ingestion): 0.51
- SEsc (Ideal value: Lowest value), Below left eye (skin surface; after 4 weeks): 137.0
- SEsc (Ideal value: Lowest value), Left upper arm (skin surface; after 4 weeks): 195.8
- SEsc (Ideal value: Lowest value), Poll (skin surface; after 4 weeks): 201.6
- SEsc (Ideal value: Lowest value), Below left eye (skin surface; after 8 weeks): 133.0
- SEsc (Ideal value: Lowest value), Left upper arm (skin surface; after 8 weeks): 202.4
- SEsc (Ideal value: Lowest value), Poll (skin surface; after 8 weeks, p < 0.05): 169.3*
- SEsc (Ideal value: Lowest value), Below left eye (skin surface; before ingestion): 238.4
- SEsc (Ideal value: Lowest value), Left upper arm (skin surface; before ingestion): 342.9
- SEsc (Ideal value: Lowest value), Poll (skin surface; before ingestion): 352.4
- SEsm (Ideal value: Lowest value), Below left eye (skin surface; after 4 weeks): 337.6
- SEsm (Ideal value: Lowest value), Left upper arm (skin surface; after 4 weeks): 324.7
- SEsm (Ideal value: Lowest value), Poll (skin surface; after 4 weeks, p < 0.05): 338.9*
- SEsm (Ideal value: Lowest value), Below left eye (skin surface; after 8 weeks): 309.4
- SEsm (Ideal value: Lowest value), Left upper arm (skin surface; after 8 weeks): 379.9
- SEsm (Ideal value: Lowest value), Poll (skin surface; after 8 weeks, p < 0.05): 345.2*
- SEsm (Ideal value: Lowest value), Below left eye (skin surface; before ingestion): 378.1
- SEsm (Ideal value: Lowest value), Left upper arm (skin surface; before ingestion): 384.7
- SEsm (Ideal value: Lowest value), Poll (skin surface; before ingestion): 443.8
- SWw (Ideal value: Lowest value), Below left eye (skin surface; after 4 weeks): 29.0
- SWw (Ideal value: Lowest value), Left upper arm (skin surface; after 4 weeks): 26.4
- SWw (Ideal value: Lowest value), Poll (skin surface; after 4 weeks): 23.4
- SWw (Ideal value: Lowest value), Below left eye (skin surface; after 8 weeks): 27.8
- SWw (Ideal value: Lowest value), Left upper arm (skin surface; after 8 weeks): 31.9
- SWw (Ideal value: Lowest value), Poll (skin surface; after 8 weeks): 29.5
- SWw (Ideal value: Lowest value), Below left eye (skin surface; before ingestion): 33.2
- SWw (Ideal value: Lowest value), Left upper arm (skin surface; before ingestion): 30.2
- SWw (Ideal value: Lowest value), Poll (skin surface; before ingestion): 27.3
- solubility in water [2]: 32 % by weight
